Assay results: patent publication US7504407B2, “Compounds specific to adenosine A1 and A3 receptors and uses thereof” (OSI Pharmaceuticals, Inc., priority 2001, dated 2009)

Columns and labels:
[1] = target: T1, human A2a receptor subtype (Homo sapiens, UniProt P29274); experiment: Adenosine 2a receptor subtype competition radioligand binding, [3H]CGS-21680, HEK293 membranes; details: @ 10 μM
T1 construct: expressed in transfected cells; host or cells: HEK-293 (Cadus clone #5)

[2] = target: T2, human A1 adenosine receptor (Homo sapiens, UniProt P30542); details: cited from earlier work
T2 sequence (P30542 1-326): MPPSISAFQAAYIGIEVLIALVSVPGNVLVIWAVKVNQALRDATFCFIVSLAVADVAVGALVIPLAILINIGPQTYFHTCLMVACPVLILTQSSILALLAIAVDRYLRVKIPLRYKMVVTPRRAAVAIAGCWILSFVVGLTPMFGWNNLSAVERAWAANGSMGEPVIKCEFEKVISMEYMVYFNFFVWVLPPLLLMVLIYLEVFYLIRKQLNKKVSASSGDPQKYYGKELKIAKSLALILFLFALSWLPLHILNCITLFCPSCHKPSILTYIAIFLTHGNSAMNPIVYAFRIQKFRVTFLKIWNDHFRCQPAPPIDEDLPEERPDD

[3] = target: T3, human A3 receptor subtype (Homo sapiens, UniProt P0DMS8); experiment: Adenosine 3 receptor competition radioligand binding, [125I]AB-MECA, HEK293 membranes; details: for properties relative to compound 1720: A3 affinity, A3/A1 selectivity, solubility as in Table 3
T3 construct: expressed in transfected cells; host or cells: HEK293
T3 sequence (P0DMS8 1-318): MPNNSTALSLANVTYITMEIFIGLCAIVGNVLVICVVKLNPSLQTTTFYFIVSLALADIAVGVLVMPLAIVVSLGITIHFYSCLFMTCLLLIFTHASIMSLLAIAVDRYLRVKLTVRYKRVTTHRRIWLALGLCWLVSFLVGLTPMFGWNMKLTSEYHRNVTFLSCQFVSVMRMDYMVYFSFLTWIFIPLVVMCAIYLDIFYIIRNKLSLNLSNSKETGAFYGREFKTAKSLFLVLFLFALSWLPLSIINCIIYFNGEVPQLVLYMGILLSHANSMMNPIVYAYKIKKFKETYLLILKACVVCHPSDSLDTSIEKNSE

[4] = target: T4, human A1 receptor subtype (Homo sapiens, UniProt P30542)
T4 sequence (P30542 1-326): T2 sequence (P30542 1-326)

T1 sequence (P29274 whole entry): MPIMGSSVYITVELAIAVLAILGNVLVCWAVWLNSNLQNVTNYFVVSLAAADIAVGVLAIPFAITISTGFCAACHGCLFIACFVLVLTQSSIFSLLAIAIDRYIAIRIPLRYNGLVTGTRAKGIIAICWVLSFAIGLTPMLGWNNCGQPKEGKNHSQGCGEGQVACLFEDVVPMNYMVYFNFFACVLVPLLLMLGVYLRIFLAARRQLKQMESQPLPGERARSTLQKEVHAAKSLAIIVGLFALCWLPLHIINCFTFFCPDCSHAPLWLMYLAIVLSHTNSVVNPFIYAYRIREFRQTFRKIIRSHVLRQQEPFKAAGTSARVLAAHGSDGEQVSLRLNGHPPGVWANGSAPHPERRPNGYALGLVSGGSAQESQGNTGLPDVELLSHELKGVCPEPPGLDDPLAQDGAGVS

melting point	properties relative to compound 1720 [3]	Binding Affinity for A3 receptor relative to compound 1720 [3]	SMILES	other results
–	–	–	CNC(=O)NCCCNc1nc(-c2ccccc2)nc2[nH]c(C)c(C)c12 [Compound 1310]	% activity A2a [1]: 76%
–	–	–	CC(Cc1ccccc1)Nc1ncnc2c1ncn2C1OC(CO)C(O)C1O (single isomer, unassigned; (-)) [R-PIA, (−)-N6-(2-phenylisopropyl)-adenosine]	reported affinity [2]: approximately 50 nM
234 to 235 °C	–	–	c1ccc(-c2nc(NCCc3cnc[nH]3)c3cc[nH]c3n2)cc1 [Compound 1720, [2-(3H-Imidazol-4-yl)-ethyl]-(2-phenyl-7H-pyrrolo[2,3-d]pyrimidin-4-yl)-amine]	A3 receptor binding affinity relative to reference compound 1308 ([3]; relative to reference compound 1308): greater than 10 times
–	–	–	NC(=O)[C@@H]1C[C@@H](O)CN1c1nc(-c2ccccc2)nc2[nH]ccc12 [Compound 1631, (2S, 4R)-4-Hydroxy-1-(2-phenyl-7H-pyrrolo[2,3-d]pyrimidin-4-yl)-pyrrolidine-2-carboxylic acid amide methane sulfonate]	A1 receptor binding affinity relative to reference compounds 1318 or 1319 [4]: equaled or surpassed
–	superior	Similar	c1ccc(-c2nc(N3CCc4nc[nH]c4C3)c3cc[nH]c3n2)cc1 [Compound 1733]	–
183 to 185 °C	–	–	Clc1cccc(-c2nc(NCCCn3ccnc3)c3cc[nH]c3n2)c1 [Compound 1723]	–
199 to 200 °C	–	–	Clc1cccc(-c2nc(NCCc3ccccn3)c3cc[nH]c3n2)c1 [Compound 1722]	–
–	superior	Similar	Cc1cc2c(NCCc3c[nH]cn3)nc(-c3cccc(Cl)c3)nc2[nH]1 [Compound 1731]	–
–	superior	Higher	Clc1cccc(-c2nc(NCCc3cnc[nH]3)c3cc[nH]c3n2)c1 [Compound 1721]	–
